Experimental data published in patent US10266526B2, “Substituted 1,2,3-triazoles as SMYD inhibitors for treating cancer” (EPIZYME, INC., priority 2014, dated 2019).

Biological target: SMYD2 (Homo sapiens (Human), UniProt Q9NRG4)
Assay: SMYD2 biochemical assay (SMYD2 enzyme assay on peptide substrate, 3H-SAM Flashplate)
Details: read-out: SMYD2 Biochem IC50; IC50 values are an average of n = 1 to n = 50

Chain of SMYD2 (Q9NRG4 whole entry): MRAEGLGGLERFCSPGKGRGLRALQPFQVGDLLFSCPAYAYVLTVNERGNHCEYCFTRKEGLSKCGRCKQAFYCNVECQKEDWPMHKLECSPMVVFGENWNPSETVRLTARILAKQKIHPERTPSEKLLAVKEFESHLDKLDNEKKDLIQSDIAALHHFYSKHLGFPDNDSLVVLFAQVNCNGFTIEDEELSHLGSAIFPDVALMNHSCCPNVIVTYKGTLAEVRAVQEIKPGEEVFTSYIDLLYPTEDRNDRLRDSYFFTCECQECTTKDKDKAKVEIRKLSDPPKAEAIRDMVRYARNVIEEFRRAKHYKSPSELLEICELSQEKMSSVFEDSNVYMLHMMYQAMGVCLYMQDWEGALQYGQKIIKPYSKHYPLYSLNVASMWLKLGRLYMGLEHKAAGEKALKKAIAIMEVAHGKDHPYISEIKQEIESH

| Structure (SMILES) | IC50 [nM] |
| --- | --- |
| COc1ccccc1[C@H](C)N1CC(NC(=O)c2cc(C3CC3)cnn2)C1 [compound 841, 5-cyclopropyl-N-{1-[(1S)-1-(2-methoxyphenyl)ethyl]azetidin-3-yl}pyridazine-3-carboxamide] | 5010 |
| CNC(=O)c1ccc(COc2ccc(C(C)N3CC(NC(=O)c4cn(C5CC5)nn4)C3)cc2)cc1 (centres unmarked) [compound 854, 1-cyclopropyl-N-{1-[1-(4-{[4-(methylcarbamoyl)phenyl]methoxy}phenyl)ethyl]azetidin-3-yl}-1H-1,2,3-triazole-4-carboxamide] | 965 |
| CC(c1ccc(F)cc1)N1CC(NC(=O)c2cn(C3CC3)nn2)C1 (centres unmarked) [compound 747, 1-cyclopropyl-N-{1-[1-(4-fluorophenyl)ethyl]azetidin-3-yl}-1H-1,2,3-triazole-4-carboxamide] | 1920 |
| CC(c1cc(F)cc(Cl)c1)N1CC(NC(=O)c2cn(C3CC3)nn2)C1 (centres unmarked) [compound 714, N-{1-[1-(3-chloro-5-fluorophenyl)ethyl]azetidin-3-yl}-1-cyclopropyl-1H-1,2,3-triazole-4-carboxamide] | 2130 |
| CC(c1cc(Cl)ccc1Oc1ccc(F)cc1)N1CC(NC(=O)c2cn(C3CC3)nn2)C1 (centres unmarked) [compound 989, N-(1-(1-(5-chloro-2-(4-fluorophenoxy)phenyl)ethyl)azetidin-3-yl)-1-cyclopropyl-1H-1,2,3-triazole-4-carboxamide] | > 50000 |
| CC(C)N1CC(NC(=O)c2cn(CCO)nn2)C1 [compound 703, 1-(2-hydroxyethyl)-N-[1-(propan-2-yl)azetidin-3-yl]-1H-1,2,3-triazole-4-carboxamide] | > 50000 |
| COCCCOc1ccc(CN2CC(NC(=O)c3cn(C4CC4)nn3)C2)cc1 [compound 818, 1-cyclopropyl-N-(1-{[4-(3-methoxypropoxy)phenyl]methyl}azetidin-3-yl)-1H-1,2,3-triazole-4-carboxamide] | 3000 |
| COc1cccc(C(N2CC(NC(=O)c3cn(C4CC4)nn3)C2)C(F)(F)F)c1 (centres unmarked) [compound 729, 1-cyclopropyl-N-{1-[2,2,2-trifluoro-1-(3-methoxyphenyl)ethyl]azetidin-3-yl}-1H-1,2,3-triazole-4-carboxamide] | > 50000 |
| O=C(NC1CN(Cc2ccc(OCc3cscn3)cc2)C1)c1cn(C2CC2)nn1 [compound 999, 1-cyclopropyl-N-(1-(4-(thiazol-4-ylmethoxy)benzyl)azetidin-3-yl)-1H-1,2,3-triazole-4-carboxamide] | 1100 |
| Cn1cnc(CN2CC(NC(=O)c3cn(C4CC4)nn3)C2)c1 [compound 733, 1-cyclopropyl-N-{1-[(1-methyl-1H-imidazol-4-yl)methyl]azetidin-3-yl}-1H-1,2,3-triazole-4-carboxamide] | 6800 |
| O=C(NC1CN(Cc2cncn2Cc2ccccc2)C1)c1cn(C2CC2)nn1 [compound 809, N-{1-[(1-benzyl-1H-imidazol-5-yl)methyl]azetidin-3-yl}-1-cyclopropyl-1H-1,2,3-triazole-4-carboxamide] | > 50000 |
| CC(c1c(Cl)cccc1Cl)N1CC(NC(=O)c2cn(C3CC3)nn2)C1 (centres unmarked) [compound 769, 1-cyclopropyl-N-{1-[1-(2,6-dichlorophenyl)ethyl]azetidin-3-yl}-1H-1,2,3-triazole-4-carboxamide] | 1200 |
| CC(c1cc(Cl)ccc1C(F)(F)F)N1CC(NC(=O)c2cn(C3CC3)nn2)C1 (centres unmarked) [compound 976, N-(1-(1-(5-chloro-2-(trifluoromethyl)phenyl)ethyl)azetidin-3-yl)-1-cyclopropyl-1H-1,2,3-triazole-4-carboxamide] | 1800 |
| Cn1cnc(CN2CC(NC(=O)c3cc(C4CC4)cnn3)C2)c1Cl [compound 648, N-{1-[(5-chloro-1-methyl-1H-imidazol-4-yl)methyl]azetidin-3-yl}-5-cyclopropylpyridazine-3-carboxamide] | 7330 |
| COCCCN1CC(NC(=O)c2cn(C3CC3)nn2)C1 [compound 686, 1-cyclopropyl-N-[1-(3-methoxypropyl)azetidin-3-yl]-1H-1,2,3-triazole-4-carboxamide] | 3760 |
| CC(C)(c1ccc(OCc2ccccc2)cc1)N1CC(NC(=O)c2cn(C3CC3)nn2)C1 [compound 980, N-(1-(2-(4-(benzyloxy)phenyl)propan-2-yl)azetidin-3-yl)-1-cyclopropyl-1H-1,2,3-triazole-4-carboxamide] | 990 |
| C[C@H](c1ccccc1)N1CC(NC(=O)c2cc(C3CC3)cnn2)C1 [compound 647, 5-cyclopropyl-N-{1-[(1R)-1-phenylethyl]azetidin-3-yl}pyridazine-3-carboxamide] | 7800 |
| CN1CC(NC(=O)c2cn(C3CC3)nn2)C1 [compound 659, 1-cyclopropyl-N-(1-methylazetidin-3-yl)-1H-1,2,3-triazole-4-carboxamide] | 2840 |
| CCCN1CC(NC(=O)c2cn(C3CC3)nn2)C1 [compound 660, 1-cyclopropyl-N-(1-propylazetidin-3-yl)-1H-1,2,3-triazole-4-carboxamide] | 1170 |
| NC(=O)c1cccc(CN2CC(NC(=O)c3cn(C4CC4)nn3)C2)c1 [compound 727, N-{1-[(3-carbamoylphenyl)methyl]azetidin-3-yl}-1-cyclopropyl-1H-1,2,3-triazole-4-carboxamide] | 7300 |
| CC(c1cccc(OCCN)c1Cl)N1CC(NC(=O)c2cn(C3CC3)nn2)C1 (centres unmarked) [compound 1009, N-(1-(1-(3-(2-aminoethoxy)-2-chlorophenyl)ethyl)azetidin-3-yl)-1-cyclopropyl-1H-1,2,3-triazole-4-carboxamide] | 5700 |
| CN(C)CCCNC(=O)c1cn(C2CC2)nn1 [compound 921, 1-cyclopropyl-N-(3-(dimethylamino)propyl)-1H-1,2,3-triazole-4-carboxamide] | 5400 |
| O=C(NC1CN(Cc2ccc(OCCCO)cc2)C1)c1cn(C2CC2)nn1 [compound 823, 1-cyclopropyl-N-(1-{[4-(3-hydroxypropoxy)phenyl]methyl}azetidin-3-yl)-1H-1,2,3-triazole-4-carboxamide] | 3220 |
| C[C@H](c1ccccc1)N1CC(NC(=O)c2cn(C3CC3)nn2)C1 [compound 720, 1-cyclopropyl-N-{1-[(1R)-1-phenylethyl]azetidin-3-yl}-1H-1,2,3-triazole-4-carboxamide] | 23300 |
| CC(c1ccc2c(cnn2C)c1)N1CC(NC(=O)c2cn(C3CC3)nn2)C1 (centres unmarked) [compound 952, 1-cyclopropyl-N-(1-(1-(1-methyl-1H-indazol-5-yl)ethyl)azetidin-3-yl)-1H-1,2,3-triazole-4-carboxamide] | 1630 |
| CC(c1cccc(OCCN(C)C)c1Cl)N1CC(NC(=O)c2cn(C3CC3)nn2)C1 (centres unmarked) [compound 977, N-(1-(1-(2-chloro-3-(2-(dimethylamino)ethoxy)phenyl)ethyl)azetidin-3-yl)-1-cyclopropyl-1H-1,2,3-triazole-4-carboxamide] | 7500 |

Now those with a lower IC50, led by results:

| IC50 [nM] | Structure (SMILES) |
| --- | --- |
| 787 | CCC(c1ccc(F)cc1)N1CC(NC(=O)c2cn(C3CC3)nn2)C1 (centres unmarked) [compound 694, 1-cyclopropyl-N-{1-[1-(4-fluorophenyl)propyl]azetidin-3-yl}-1H-1,2,3-triazole-4-carboxamide] |
| 780 | CNCc1cccc(C(C)N2CC(NC(=O)c3cn(C4CC4)nn3)C2)c1OC (centres unmarked) [compound 835, 1-cyclopropyl-N-[1-(1-(2-methoxy-3-[(methylamino)methyl]phenyl}ethyl)azetidin-3-yl]-1H-1,2,3-triazole-4-carboxamide] |
| 745 | CC(C)N1CC(NC(=O)c2cc(C3CC3)cnn2)C1 [compound 645, 5-cyclopropyl-N-[1-(propan-2-yl)azetidin-3-yl]pyridazine-3-carboxamide] |
| 718 | CC(c1cccc(OCc2ccccc2)c1)N1CC(NC(=O)c2cn(C3CC3)nn2)C1 (centres unmarked) [compound 737, N-(1-{1-[3-(benzyloxy)phenyl]ethyl}azetidin-3-yl)-1-cyclopropyl-1H-1,2,3-triazole-4-carboxamide] |
| 341 | CC(c1ccc(F)cc1Cl)N1CC(NC(=O)c2cn(C3CC3)nn2)C1 (centres unmarked) [compound 710, N-{1-[1-(2-chloro-4-fluorophenyl)ethyl]azetidin-3-yl}-1-cyclopropyl-1H-1,2,3-triazole-4-carboxamide] |
| 189 | COc1ccccc1[C@@H](C)N1CC(NC(=O)c2cc(C3CC3)cnn2)C1 [compound 842, 5-cyclopropyl-N-{1-[(1R)-1-(2-methoxyphenyl)ethyl]azetidin-3-yl}pyridazine-3-carboxamide] |
| 150 | O=C(NC1CN(Cc2ccc(OCc3ccccc3)cc2)C1)c1cc(C2CC2)ccn1 [compound 967, N-(1-(4-(benzyloxy)benzyl)azetidin-3-yl)-4-cyclopropylpicolinamide] |
| 130 | COc1cccc(C(C)N2CC(NC(=O)c3cc(C4CC4)ccn3)C2)c1OC (centres unmarked) [compound 1005, 4-cyclopropyl-N-(1-(1-(2,3-dimethoxyphenyl)ethyl)azetidin-3-yl)picolinamide] |
| 80 | O=C(NC1CN(Cc2cnn(Cc3ccc4scnc4c3)c2)C1)c1cn(C2CC2)nn1 [compound 936, N-(1-((1-(benzo[d]thiazol-5-ylmethyl)-1H-pyrazol-4-yl)methyl)azetidin-3-yl)-1-cyclopropyl-1H-1,2,3-triazole-4-carboxamide] |
| 28 | COc1ccc(Cn2cc(CN3CC(NC(=O)c4cn(C5CC5)nn4)C3)cn2)cc1 [compound 932, 1-cyclopropyl-N-(1-((1-(4-methoxybenzyl)-1H-pyrazol-4-yl)methyl)azetidin-3-yl)-1H-1,2,3-triazole-4-carboxamide] |
| 26.5 | CC(c1ccc(OCc2ccccc2)cc1)N1CC(NC(=O)c2cc(C3CC3)cnn2)C1 (centres unmarked) [compound 836, N-(1-{1-[4-(benzyloxy)phenyl]ethyl}azetidin-3-yl)-5-cyclopropylpyridazine-3-carboxamide] |
| 14 | O=C(NC1CN(Cc2cnn(Cc3ccc(C(F)(F)F)cc3)c2)C1)c1cn(C2CC2)nn1 [compound 943, 1-cyclopropyl-N-(1-((1-(4-(trifluoromethyl)benzyl)-1H-pyrazol-4-yl)methyl)azetidin-3-yl)-1H-1,2,3-triazole-4-carboxamide] |
